Assay results: patent US12692241B2, “Substituted triazine compound” (Nico Therapeutics, Inc., priority 2021, dated 2026)
Like-named read-outs stand apart in the source and are kept apart here.

What was measured:
[1] = test system: IL-1β production in THP-1 cells (LPS and ATP; NLRP3 inflammasome activation); assay: THP-1 IL-1β production inhibitory test; type: cell-based, human; details: PMA-differentiated THP-1 cells, LPS 50 ng/mL and ATP 5 mM, 2 hours, ELISA, read-out: IC50 (nM), IL-1β production
Method in brief: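 THP-1 cells were differentiated with 50 ng/mL PMA for 2 days, then held 15 min at 37 °C. Cells were stimulated with 50 ng/mL LPS plus 5 mM ATP for 2 h, and supernatant IL-1β was measured by ELISA. IC50 came from sigmoidal Emax nonlinear regression.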

[2] = test system: TNF-α production in THP-1 cells (LPS); assay: TNF-α production inhibitory test; type: cell-based; details: Homo sapiens; PMA-differentiated THP-1 cells, LPS 50 ng/mL, 2 hours, ELISA
Experimental: TNF-α Production Inhibitory Test
To THP-1 cells, 50 ng/mL PMA (phorbol myristate acetate, SIGMA, P1585) was added and then the cells were cultured at 37° C. for 2 days. The culture medium was exchanged with serum-free RPMI-1640 medium, and a compound known in concentration was added. The cells were cultured at 37° C. for 15 minutes. LPS (lipopolysaccharide, SIMGA, L2880) was added such that the final concentrations of them became 50 ng/mL. The cells were cultured at 37° C. for 2 hours. The supernatant was collected and the concentration of TNF-α was measured by ELISA (DuoSet ELISA human TNF-α, R&D Systems, DY201). The concentration of TNF-α was plotted against the logarithm of the concentration of the test compound, and the IC50 value was calculated by sigmoidal Emax model nonlinear regression analysis.

[3] = test system: 3T3 NRU phototoxicity; assay: In vitro phototoxicity test (3T3 NRU); type: cell-based; details: ICH S10 / OECD 432 in vitro 3T3 NRU phototoxicity test
Text: In Vitro Phototoxicity Test
The evaluation of in vitro phototoxicity tests was based on ICH S10: Guidelines for Evaluation of Phototoxicity of Drugs (Notification No. 0521-1) and OECD guideline for testing of chemicals 432: In vitro 3T3 NRU phototoxicity test, 2004, which was described in the OECD report.

[4] = molecular target: human Ether-a-go-go Related Gene (hERG) channel (Homo sapiens, UniProt Q12809); assay: Safety pharmacological test: hERG channel inhibitory effect; type: biochemical
Sequence of human Ether-a-go-go Related Gene (hERG) channel (Q12809 whole entry): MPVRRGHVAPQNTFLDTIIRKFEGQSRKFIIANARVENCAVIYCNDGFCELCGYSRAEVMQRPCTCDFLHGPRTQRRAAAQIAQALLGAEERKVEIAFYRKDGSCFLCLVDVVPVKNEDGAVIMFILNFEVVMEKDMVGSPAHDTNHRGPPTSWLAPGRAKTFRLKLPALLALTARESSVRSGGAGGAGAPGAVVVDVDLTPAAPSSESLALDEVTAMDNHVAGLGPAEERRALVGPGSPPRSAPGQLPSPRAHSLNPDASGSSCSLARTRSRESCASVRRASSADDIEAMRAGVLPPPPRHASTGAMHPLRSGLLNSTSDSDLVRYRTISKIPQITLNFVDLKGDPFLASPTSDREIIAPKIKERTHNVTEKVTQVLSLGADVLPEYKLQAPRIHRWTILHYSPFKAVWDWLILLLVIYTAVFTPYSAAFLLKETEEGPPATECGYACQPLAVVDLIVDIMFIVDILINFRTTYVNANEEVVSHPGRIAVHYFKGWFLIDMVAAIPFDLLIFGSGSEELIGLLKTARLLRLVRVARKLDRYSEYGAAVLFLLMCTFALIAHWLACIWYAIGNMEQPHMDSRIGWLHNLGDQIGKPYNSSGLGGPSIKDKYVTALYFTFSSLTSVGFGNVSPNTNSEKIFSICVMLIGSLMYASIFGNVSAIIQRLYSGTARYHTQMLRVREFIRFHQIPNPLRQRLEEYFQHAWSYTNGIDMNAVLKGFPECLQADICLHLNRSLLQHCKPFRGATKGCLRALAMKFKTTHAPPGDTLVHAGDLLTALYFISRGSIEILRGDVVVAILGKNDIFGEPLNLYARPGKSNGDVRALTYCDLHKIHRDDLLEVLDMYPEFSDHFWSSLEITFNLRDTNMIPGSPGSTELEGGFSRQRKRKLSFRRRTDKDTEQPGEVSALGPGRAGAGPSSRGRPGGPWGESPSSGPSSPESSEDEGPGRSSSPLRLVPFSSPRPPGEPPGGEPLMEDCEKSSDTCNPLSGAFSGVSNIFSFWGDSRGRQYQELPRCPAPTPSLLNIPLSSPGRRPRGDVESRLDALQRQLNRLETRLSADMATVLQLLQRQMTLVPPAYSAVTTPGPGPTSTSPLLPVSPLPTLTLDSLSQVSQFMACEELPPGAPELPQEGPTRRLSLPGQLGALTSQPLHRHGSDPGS
Experimental: Safety Pharmacological Test
As a safety pharmacological test, the human Ether-a-go-go Related Gene (hereinafter referred to as hERG) channel inhibitory effect was evaluated. The hERG channel inhibitory effect was evaluated using a modified method described in Combinatorial Chemistry & High Throughput Screening, 12, 1, 78-95 (2009).

Row | IC50 ([1]; Homo sapiens, THP-1, 2 h) | IC50 [2] | IC50 [1] | SMILES | phototoxic effect [3] | IC50 [4]
1 | 470 nM | ≥ 10 µM |  | Cc1nc(NC[C@H]2CNCCO2)nnc1-c1ccc(C(F)(F)F)cc1O [Example 141, 2-[5-methyl-3-({[(2R)-morpholin-2-yl]methyl}amino)-1,2,4-triazin-6-yl]-5-(trifluoromethyl)phenol] |  | 
2 | 1.3 nM | ≥ 10 µM |  | Cc1nc(N[C@@H]2CCCN(C3CC3)C2)nnc1-c1ccc(C(F)(F)F)cc1O [Example 73, 2-(3-{[(3R)-1-cyclopropylpiperidin-3-yl]amino}-5-methyl-1,2,4-triazin-6-yl)-5-(trifluoromethyl)phenol] |  | 
3 |  | ≥ 10 µM | 1.5 nM | Cc1nc(N[C@@H]2CCCN(C)C2)nnc1-c1ccc(C(F)(F)F)cc1O [Example 164] | no phototoxic effect | ≥ 10 µM
4 | 1.1 nM | ≥ 10 µM |  | Cc1nc(N[C@@H]2CCCN(C)C2)nnc1-c1ccc(OC(F)F)cc1O [Example 174, 5-(difluoromethoxy)-2-(5-methyl-3-{[(3R)-1-methylpiperidin-3-yl]amino}-1,2,4-triazin-6-yl)phenol] |  | 
5 | 15 nM | ≥ 10 µM |  | Cc1nc(N[C@@H]2CCCC[C@H]2N)nnc1-c1ccc(C(F)(F)F)cc1O [Example 132, 2-(3-{[(1R,2R)-2-aminocyclohexyl]amino}-5-methyl-1,2,4-triazin-6-yl)-5-(trifluoromethyl)phenol] | no phototoxic effect | ≥ 10 µM

The next lines start with the compound.

Row | SMILES | IC50 ([1]; Homo sapiens, THP-1, 2 h) | IC50 [2] | IC50 [1] | phototoxic effect [3] | IC50 [4]
6 | Cc1nc(N[C@@H]2CCCC[C@H]2O)nnc1-c1ccc(OC(F)F)cc1O [Example 131, 5-(difluoromethoxy)-2-(3-{[(1R,2R)-2-hydroxycyclohexyl]amino}-5-methyl-1,2,4-triazin-6-yl)phenol] | 9.5 nM | ≥ 10 µM |  | no phototoxic effect | ≥ 10 µM
7 | COc1ccc(-c2nnc(N[C@@H]3CCCC[C@H]3O)nc2C)c(O)c1 [Example 59, 2-(3-{[(1R,2R)-2-hydroxycyclohexyl]amino}-5-methyl-1,2,4-triazin-6-yl)-5-methoxyphenol] | 14 nM | ≥ 10 µM |  | no phototoxic effect | ≥ 10 µM
8 | Cc1nc(N[C@@H]2CCC[C@H](O)C2)nnc1-c1ccc(C(F)(F)F)cc1O [Example 75, 2-(3-{[(1R,3S)-3-hydroxycyclohexyl]amino}-5-methyl-1,2,4-triazin-6-yl)-5-(trifluoromethyl)phenol] | 6.5 nM | ≥ 10 µM |  | no phototoxic effect | ≥ 10 µM
